Experimental data: US10370436B2, “Anti-pseudomonas Psl binding molecules and uses thereof” (priority 2011, dated 2019)

Test system: P. aeruginosa PAO10 LPS
Experiment: Endotoxemia (LPS challenge) model
Assay type: in vivo, C57Bl/6 mice
Settings: 0.2 mg/kg i.p. 2 h prior to challenge
Description: In particular, C57Bl/6 mice (10 per group) were dosed i.p. with mAb or PMB-mAb conjugate 6 h prior to challenge with P. aeruginosa PAO10 LPS (Sigma) and D-galactosamine. PMB control was dosed i.p. 2 h prior to challenge at 0.2 mg/kg and typically provides 80-100% protection. Control mice dosed with unconjugated CAM-003 all died within 18 h.
TM conjugates were dosed at 45, 15 and 5 mg/kg.

Polymyxin B [PMB, reference compound]
protection: 80-100%
